According to patent publication US20240174723A1, “STAPLED ANTIMICROBIAL PEPTIDES (STAMPS) AND USES THEREOF” (Lytica Therapeutics, Inc., priority 2021, published 2024):
Converted amounts (≈) assume the structure as drawn. Positions of bridges follow the written chain, without caps; N, C: chain ends. Non-standard residues stand in square brackets, D forms with d. Residues, ends and D or L forms follow the SMILES beside them. PEG5 = NCCOCCOCCOCCOCCOCCC(=O)O; PEG4 = NCCOCCOCCOCCOCCC(=O)O; S5 = C=CCCC[C@](C)(N)C(=O)O; PEG3 = NCCOCCOCCOCCC(=O)O; Dap = NC[C@H](N)C(=O)O

Legend:
[1] = tested on: Human Renal Proximal Tubule Epithelial Cells (RPTEC); assay: in vitro; assay type: cell-based; conditions: 90 min
Method in brief: (§1)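 RPTEC or HepG2 cells plated overnight, given fresh media, then serial StAMP dilutions (from 5 mg/mL water stock) or vehicle at 37 °C. Cytotoxicity read as LDH release into media, absorbance 490 nm; renal toxicity after 90 min, liver toxicity after 48 h incubation.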

[2] = tested on: E. coli; assay type: cell-based, Escherichia coli
Method in brief: (§2)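 Minimum inhibitory concentrations of stapled peptides were determined by a microbroth dilution method derived from CLSI, using a final inoculum of 5×10^5 CFU/ml and 20-24 h incubation at 37 °C.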

[3] = tested on: A. baumannii; assay type: cell-based, Acinetobacter baumannii
Method in brief: as §2

[4] = tested on: S. aureus; assay type: cell-based, Staphylococcus aureus
Method in brief: as §2

[5] = tested on: Human Liver Cells (HepG2); assay: in vitro; assay type: cell-based; conditions: 48 hours
Method in brief: (§3)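 HepG2 cells in EMEM with 10% FBS, allowed 4 h to attach, then exposed to serial dilutions of StAMPs (from a 5 mg/mL water stock) or vehicle. After 48 h at 37 °C, viability read by CellTiter-Glo luminescence.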

[6] = tested on: K. pneumoniae; assay type: cell-based, Klebsiella pneumoniae
Method in brief: as §2

[7] = tested on: P. aeruginosa; assay type: cell-based, Pseudomonas aeruginosa
Method in brief: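 Broth microdilution adapted from CLSI in MHB or cation-adjusted MHB; log-phase P. aeruginosa at 5×10^5 CFU/ml final with serially diluted stapled peptides. Incubated 20-24 h at 37 °C; MIC is the lowest concentration without visible growth.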

[8] = in vitro; assay type: cell-based; conditions: human
Method in brief: as §1

[9] = in vitro; assay type: cell-based; conditions: human, Inhibitory Concentration at 50% Cytotoxicity (IC50) Human Liver Cells (HepG2)
Method in brief: as §3

Row | SMILES | Inhibitory Concentration at 50% Cytotoxicity (IC50) Human Renal Proximal Tubule Epithelial Cells (RPTEC) [1] | Minimum Inhibitory Concentration (MIC) E. coli [2] | Minimum Inhibitory Concentration (MIC) A. baumannii [3] | Minimum Inhibitory Concentration (MIC) S. aureus [4] | Inhibitory Concentration at 50% Cytotoxicity (IC50) Human Liver Cells (HepG2) [5] | Minimum Inhibitory Concentration (MIC) K. pneumoniae [6] | Minimum Inhibitory Concentration (MIC) P. aeruginosa [7] | IC50 at 90 min [8] | IC50 at 48 hours [9]
1 | CC(C)[C@@H]1NC(=O)[C@@](C)(NC(=O)[C@H](C)NC(=O)[C@H](CCCCN)NC(=O)CNC(=O)[C@H](Cc2ccccc2)NC(=O)[C@H](CCCCN)NC(=O)[C@H](CCCCN)NC(=O)[C@H](CCCCN)NC(=O)[C@H](CO)NC(=O)[C@H](Cc2c[nH]cn2)NC(=O)[C@]2(C)CCCC=CCCC[C@](C)(NC(=O)CN)C(=O)NCC(=O)N[C@@H](CCCCN)C(=O)N[C@@H](Cc3ccccc3)C(=O)N2)CCCC=CCCC[C@@](C)(C(=O)N[C@@H](C)C(=O)N[C@@H](CCCCN)C(=O)N[C@@H](CCCCN)C(N)=O)NC(=O)[C@H](CCC(=O)O)NC(=O)[C@H](Cc2c[nH]c3ccccc23)NC1=O (single isomer, unassigned) [compound 65] | 110 µg/mL | 4 µg/mL | 2 µg/mL | 32 µg/mL | 150 µg/mL |  |  |  | 
2 | CC(C)[C@@H]1NC(=O)[C@@](C)(NC(=O)[C@H](C)NC(=O)[C@H](CCCCN)NC(=O)CNC(=O)[C@H](Cc2ccccc2)NC(=O)[C@H](CCCCN)NC(=O)[C@H](CCCCN)NC(=O)[C@H](CCCCN)NC(=O)[C@H](CCCCN)NC(=O)[C@H](CCN)NC(=O)[C@]2(C)CCCC=CCCC[C@](C)(NC(=O)CN)C(=O)NCC(=O)N[C@@H](CCCCN)C(=O)N[C@@H](Cc3ccccc3)C(=O)N2)CCCC=CCCC[C@@](C)(C(=O)N[C@@H](C)C(=O)N[C@@H](CCCCN)C(=O)N[C@@H](CCCCN)C(N)=O)NC(=O)[C@H](CCC(=O)O)NC(=O)CNC1=O (single isomer, unassigned) [compound 79] |  | 1 µg/mL | 0.5 µg/mL | >64 µg/mL | 113 µg/mL | 8 µg/mL | 1 µg/mL |  | 
3 | CC(C)[C@@H]1NC(=O)[C@@](C)(NC(=O)[C@H](C)NC(=O)[C@H](CCCCN)NC(=O)CNC(=O)[C@H](Cc2ccccc2)NC(=O)[C@H](CCCCN)NC(=O)[C@H](CCCCN)NC(=O)[C@H](CCCCN)NC(=O)[C@H](CCCCN)NC(=O)[C@H](CCCCN)NC(=O)[C@]2(C)CCCC=CCCC[C@](C)(NC(=O)CN)C(=O)NCC(=O)N[C@@H](CCCCN)C(=O)N[C@@H](Cc3ccccc3)C(=O)N2)CCCC=CCCC[C@@](C)(C(=O)N[C@@H](C)C(=O)N[C@@H](CCCCN)C(=O)N[C@@H](CCCCN)C(=O)NCCOCCOCCOCCC(N)=O)NC(=O)[C@H](CCC(=O)O)NC(=O)CNC1=O [compound 73] (H-G[S5]GKF[S5]KKKKKFGKA[S5]VGE[S5]AKK[PEG3]-NH2; staple 2-6, 16-20) |  | 2 µg/mL | 2 µg/mL | >64 µg/mL |  | 4 µg/mL | 4 µg/mL | 671 µg/mL (≈ 242 µM) | 407 µg/mL (≈ 147 µM)
4 | CC(C)[C@@H]1NC(=O)[C@@](C)(NC(=O)[C@H](C)NC(=O)[C@H](CCCCN)NC(=O)CNC(=O)[C@H](Cc2ccccc2)NC(=O)[C@H](CCCCN)NC(=O)[C@H](CCCCN)NC(=O)[C@H](CCCCN)NC(=O)[C@H](CCCCN)NC(=O)[C@H](CCCCN)NC(=O)[C@]2(C)CCCC=CCCC[C@](C)(NC(=O)CN)C(=O)NCC(=O)N[C@@H](CCCCN)C(=O)N[C@@H](Cc3ccccc3)C(=O)N2)CCCC=CCCC[C@@](C)(C(=O)N[C@@H](C)C(=O)N[C@@H](CCCCN)C(=O)N[C@@H](CCCCN)C(=O)NCCOCCOCCOCCOCCC(N)=O)NC(=O)[C@H](CCC(=O)O)NC(=O)CNC1=O [compound 74] (H-G[S5]GKF[S5]KKKKKFGKA[S5]VGE[S5]AKK[PEG4]-NH2; staple 2-6, 16-20) |  | 2 µg/mL | 2 µg/mL | >64 µg/mL |  | 4 µg/mL | 4 µg/mL | > 200 µg/mL | 430 µg/mL (≈ 153 µM)
5 | CC(C)[C@@H]1NC(=O)[C@@](C)(NC(=O)[C@H](C)NC(=O)[C@H](CCCCN)NC(=O)CNC(=O)[C@H](Cc2ccccc2)NC(=O)[C@H](CCCCN)NC(=O)[C@H](CCCCN)NC(=O)[C@H](CCCCN)NC(=O)[C@H](CCCCN)NC(=O)[C@H](CCCCN)NC(=O)[C@]2(C)CCCC=CCCC[C@](C)(NC(=O)CN)C(=O)NCC(=O)N[C@@H](CCCCN)C(=O)N[C@@H](Cc3ccccc3)C(=O)N2)CCCC=CCCC[C@@](C)(C(=O)N[C@@H](C)C(=O)N[C@@H](CCCCN)C(=O)N[C@@H](CCCCN)C(=O)NCCOCCOCCOCCOCCOCCC(N)=O)NC(=O)[C@H](CCC(=O)O)NC(=O)CNC1=O [compound 75] (H-G[S5]GKF[S5]KKKKKFGKA[S5]VGE[S5]AKK[PEG5]-NH2; staple 2-6, 16-20) |  | 4 µg/mL | 2 µg/mL | >64 µg/mL |  | 8 µg/mL | 4 µg/mL | > 200 µg/mL | 357 µg/mL (≈ 125 µM)
6 | CC(C)[C@@H]1NC(=O)[C@@](C)(NC(=O)[C@H](C)NC(=O)[C@H](CN)NC(=O)CNC(=O)[C@H](Cc2ccccc2)NC(=O)[C@H](CN)NC(=O)[C@H](CN)NC(=O)[C@H](CN)NC(=O)[C@H](CN)NC(=O)[C@H](CN)NC(=O)[C@]2(C)CCCC=CCCC[C@](C)(NC(=O)CN)C(=O)NCC(=O)N[C@@H](CN)C(=O)N[C@@H](Cc3ccccc3)C(=O)N2)CCCC=CCCC[C@@](C)(C(=O)N[C@@H](C)C(=O)N[C@@H](CN)C(=O)N[C@@H](CN)C(=O)NCC(N)=O)NC(=O)[C@H](CCC(=O)O)NC(=O)CNC1=O [compound 76] (H-G[S5]G[Dap]F[S5][Dap][Dap][Dap][Dap][Dap]FG[Dap]A[S5]VGE[S5]A[Dap][Dap]G-NH2; staple 2-6, 16-20) |  | 1 µg/mL | 16 µg/mL | 64 µg/mL |  | 16 µg/mL | 16 µg/mL | > 200 µg/mL | > 200 µg/mL
7 | CC(C)[C@@H]1NC(=O)[C@@](C)(NC(=O)[C@H](C)NC(=O)[C@H](CCCCN)NC(=O)CNC(=O)[C@H](Cc2ccccc2)NC(=O)[C@H](CCCCN)NC(=O)[C@H](CCCCN)NC(=O)[C@H](CCCCN)NC(=O)[C@H](CCCCN)NC(=O)[C@H](CCCCN)NC(=O)[C@]2(C)CCCC=CCCC[C@](C)(NC(=O)CN)C(=O)NCC(=O)N[C@@H](CCCCN)C(=O)N[C@@H](Cc3ccccc3)C(=O)N2)CCCC=CCCC[C@@](C)(C(=O)N[C@@H](C)C(=O)N[C@@H](CCCCN)C(=O)N[C@@H](CCCCN)C(=O)NCC(=O)NCC(=O)N[C@@H](CCC(N)=O)C(N)=O)NC(=O)[C@H](CCC(=O)O)NC(=O)CNC1=O [compound 77] (H-G[S5]GKF[S5]KKKKKFGKA[S5]VGE[S5]AKKGGQ-NH2; staple 2-6, 16-20) |  | 4 µg/mL | 3 µg/mL | >64 µg/mL |  | 16 µg/mL | 4 µg/mL | > 200 µg/mL | > 200 µg/mL
8 | CC(C)[C@@H]1NC(=O)[C@@](C)(NC(=O)[C@H](C)NC(=O)[C@H](CN)NC(=O)CNC(=O)[C@H](Cc2ccccc2)NC(=O)[C@H](CN)NC(=O)[C@H](CN)NC(=O)[C@H](CN)NC(=O)[C@H](CN)NC(=O)[C@H](CN)NC(=O)[C@]2(C)CCCC=CCCC[C@](C)(NC(=O)CN)C(=O)NCC(=O)N[C@@H](CN)C(=O)N[C@@H](Cc3ccccc3)C(=O)N2)CCCC=CCCC[C@@](C)(C(=O)N[C@@H](C)C(=O)N[C@@H](CCCCN)C(=O)N[C@@H](CCCCN)C(N)=O)NC(=O)[C@H](CCC(=O)O)NC(=O)CNC1=O [compound 78] (H-G[S5]G[Dap]F[S5][Dap][Dap][Dap][Dap][Dap]FG[Dap]A[S5]VGE[S5]AKK-NH2; staple 2-6, 16-20) |  | 16 µg/mL | 8 µg/mL | >64 µg/mL |  | 16 µg/mL | 2 µg/mL | > 200 µg/mL | > 200 µg/mL
